# Experimental data taken from patent US10317393B2, “Alkynyl sugar analogs for labeling and visualization of glycoconjugates in cells” (Academia Sinica, priority 2007, dated 2019).
# Experiments:
# Jurkat cells = experiment: Cell growth analysis after treatment with sugar analogs (cell numbers counted); type: cell-based, human
# Protocol: FIGS. 1A, 1B, 1C and 1D show analysis of cells labeled with Fuc analogs. […] Jurkat cells were grown in the presence of 200 micromolar each Fuc analog for 3 days before cell numbers were counted. The data represent the percentage of treated cells vs. untreated cells (n=4).
# It is also disclosed how treatment with exogenous Fuc analog affects cell growth rate. […] In contrast, the addition of 200 micromolar azido Fuc 2 inhibits cell growth considerably, by 65% when compared with the untreated cells. […] Such toxicity may lead to global change in expression, therefore a nontoxic probe is preferable for accurate probing of glycoconjugate expression.
# Jurkat cells were cultivated (2×10^6/10 ml) in RPMI medium 1640 supplemented with 10% FCS and various concentrations of peracetylated alkynyl sugars 1, 2, or 4 or native sugars 3 or 5, for 1-3 days at 37° C. Cells were then harvested, washed with 0.1% FCS/PBS, and resuspended (10^6 cells) in 100 microliters of click reaction solution (0.1 mM biotin probe 6 or fluorogenic probe 7/0.1 mM Tris-thiazoleamine catalyst/0.1 mM CuSO4/0.5 mM sodium ascorbate, in PBS). The reaction was incubated at room temperature for 30 min, and then the cells were washed twice with 0.1% FCS/PBS. Cells treated with biotin probe 6 were subsequently stained with fluorescein-conjugated streptavidin (0.5 microgram per sample in 50 microliters of 1% FCS/PBS) for 30 min at 4° C., and washed three times with 1% FCS/PBS. Data were acquired by BD LSR II with FACSDiva software, and were analyzed by CellQuestPro software (BD Biosciences). Detection of fluorescent adduct with probe 7 was monitored with a 408 nm laser and a 440/40 bandpass filter for excitation and emission, respectively.
# cell extracts = experiment: Labeling and detection of glycoconjugates in cell extracts (SDS/PAGE, Western blot); type: cell-based; settings: 200 micromolar Fuc or 25 micromolar ManNAc analogs, 3 days
# Excerpt: Because the herein disclosed labeling system enables the identification of cellular glycoconjugates, it can also serve well in glyco-proteomic applications aimed at discovering unknown glycosylated targets for diagnostic and therapeutic purposes. […] Soluble lysate fractions are labeled with biotin probe 6, fluorogenic probe 7, or a standard azido-derivatized rhodamine probe used in proteomics before separating proteins by SDS/PAGE. […] Positive fluorescent signal was also detected in alkynyl positive protein lysate when labeled with fluorogenic 3-azido-7-hydroxycoumarin 7 and rhodamine probes (FIG. 6B and FIG. 11). […] Moreover, further processing, including a streptavidin/avidin enrichment or gel slice purification, will allow for comparative identification by proteomic mass spectrometry techniques of unknown glycoconjugates expressed at different cell status, for instance, un-differentiated verses differentiated cells, or normal verses cancer cells.
# Cells were seeded at 3×10^6/8 ml per 10-cm dish and treated with control and test sugars (200 micromolar Fuc 3 vs. alkynyl derivatized Fuc 1, or 25 micromolar ManNAc 5 vs. alkynyl derivatized ManNAc 2) in growth medium at 37° C. […] Signal was developed with SuperSignal Chemiluminescent Substrate and detected by exposure to x-ray film. […] Rhodamine gels were analyzed.
# PC-3 cells = experiment: Lectin staining of tagged cells, flow cytometry; type: cell-based; settings: 200 micromolar, three days
# Protocol: FIGS. 9A and 9B show lectin staining of alkynyl-derivatized Fuc 1-tagged PC-3 prostate cancer cells. Cells were treated with 200 micromolar derivatized alkynyl-derivatized Fuc 1, or Fuc 3, or left untreated. After three days, cells were labeled with biotin-conjugated AAL/fluorescein-conjugated streptavidin shown in FIG. 9A or fluorescein-conjugated UEA-I shown in FIG. 9B. Fluorescent signal was detected by flow cytometry. AAL was used to detect α-1,6- or α-1,3-linked Fuc; UEA-I was used to detect α-1,2-linked Fuc. Filled histogram: untreated cells without lectin stain; open histogram c: untreated cells stained with lectin; open histogram b: control Fuc 3-treated cells stained with lectin; open histogram a: alkynyl-derivatized Fuc 1-treated cells stained with lectin. AAL, Aleuria Aurantia Lectin; UEA-1, Ulex Europaeus Agglutinin I.
# PC-3 cells were grown in RPMI 1640 (Invitrogen) supplemented with 10% FCS and peracetylated alkynyl Fuc 1 or control Fuc 3 for 3 days at 37° C. Cells were then harvested, washed with 1% FCS/PBS, resuspended (5×10^5 cells) in 100 μl of staining solution (1 μg/ml lectin conjugates in 1% FCS/PBS). Cells were then incubated on ice for 30 min and washed twice with 1% FCS/PBS. […] Data were acquired by FACSCalibur, and were analyzed by CellQuestPro software (BD Biosciences).
substance,measurement,setting,value
"1,2,3,4-tetraacetyl alkynyl fucose [alkynyl Fuc 1]",number of cells after 3 days versus cells grown without exogenous Fuc,"Jurkat cells; 200 micromolar, 3 days",similar
same,toxicity to cells (summary statement),Jurkat cells; at levels required for efficient labeling,much less toxic
same,labeling signal in proteins by Western blot or fluorescence,cell extracts,specific biotin-labeling signals
same,binding of Ulex Europaeus Agglutinin I (UEA-1) to treated cells versus control,PC-3 cells,significantly lower avidity
same,binding of aleuria aurantia lectin to treated cells versus control,PC-3 cells,significantly lower avidity
